Test system: plasmacytoid dendritic cells
Test: Enhanced survival of isolated pDCs, cell viability by flow cytometry
Assay type: cell-based, human
Conditions: 48 hours after treatment with IRM (3 μM) versus without IRM; FIG. 4
Experimental: Human pDCs were isolated from PBMC by immunomagnetic bead positive selection according to the manufacturer's instructions (Miltenyi Biotec, Inc., Auburn, Calif.). Briefly, PBMC were incubated with pDC-specific antibodies, BDCA-2 or BDCA-4, and the labeled cells were collected with a Miltenyi LS column. The positively selected cells were resuspended in X-Vivo 20 medium. Isolated pDCs were obtained as described in Example 2. The isolated pDCs were incubated in with and without IRM. Cell viability was measured in both cultures by flow cytometry after 24 hours and again after 48 hours. […] Pairwise comparisons of IRM-treated cells to the control group were performed using the Dunnett adjustment to preserve the overall 0.05 level of significance. If there were discrepancies between the 2 methods, the results from the arcsin transformed data were reported.

CCOCc1nc2c(N)nc3ccccc3c2n1CC(C)(C)O [IRM, 4-amino-2-ethoxymethyl-α,α-dimethyl-1H-imidazo[4,5-c]quinoline-1-ethanol]
pDC survival (percent viable): statistically significant higher rate of survival
